This note sets out measurements from patent US20240083897A1, “GCN2 MODULATING COMPOUNDS AND USES THEREOF” (HiberCell, Inc., priority 2021, published 2024).

What is called IC50 is the concentration at which inhibition is half-maximal.

The first assay deals with GCN2 (Homo sapiens (Human), UniProt Q9P2K8). The experiment in a line: TR-FRET biochemical assay for inhibition of GCN2.
Chain of GCN2 (Q9P2K8 whole entry): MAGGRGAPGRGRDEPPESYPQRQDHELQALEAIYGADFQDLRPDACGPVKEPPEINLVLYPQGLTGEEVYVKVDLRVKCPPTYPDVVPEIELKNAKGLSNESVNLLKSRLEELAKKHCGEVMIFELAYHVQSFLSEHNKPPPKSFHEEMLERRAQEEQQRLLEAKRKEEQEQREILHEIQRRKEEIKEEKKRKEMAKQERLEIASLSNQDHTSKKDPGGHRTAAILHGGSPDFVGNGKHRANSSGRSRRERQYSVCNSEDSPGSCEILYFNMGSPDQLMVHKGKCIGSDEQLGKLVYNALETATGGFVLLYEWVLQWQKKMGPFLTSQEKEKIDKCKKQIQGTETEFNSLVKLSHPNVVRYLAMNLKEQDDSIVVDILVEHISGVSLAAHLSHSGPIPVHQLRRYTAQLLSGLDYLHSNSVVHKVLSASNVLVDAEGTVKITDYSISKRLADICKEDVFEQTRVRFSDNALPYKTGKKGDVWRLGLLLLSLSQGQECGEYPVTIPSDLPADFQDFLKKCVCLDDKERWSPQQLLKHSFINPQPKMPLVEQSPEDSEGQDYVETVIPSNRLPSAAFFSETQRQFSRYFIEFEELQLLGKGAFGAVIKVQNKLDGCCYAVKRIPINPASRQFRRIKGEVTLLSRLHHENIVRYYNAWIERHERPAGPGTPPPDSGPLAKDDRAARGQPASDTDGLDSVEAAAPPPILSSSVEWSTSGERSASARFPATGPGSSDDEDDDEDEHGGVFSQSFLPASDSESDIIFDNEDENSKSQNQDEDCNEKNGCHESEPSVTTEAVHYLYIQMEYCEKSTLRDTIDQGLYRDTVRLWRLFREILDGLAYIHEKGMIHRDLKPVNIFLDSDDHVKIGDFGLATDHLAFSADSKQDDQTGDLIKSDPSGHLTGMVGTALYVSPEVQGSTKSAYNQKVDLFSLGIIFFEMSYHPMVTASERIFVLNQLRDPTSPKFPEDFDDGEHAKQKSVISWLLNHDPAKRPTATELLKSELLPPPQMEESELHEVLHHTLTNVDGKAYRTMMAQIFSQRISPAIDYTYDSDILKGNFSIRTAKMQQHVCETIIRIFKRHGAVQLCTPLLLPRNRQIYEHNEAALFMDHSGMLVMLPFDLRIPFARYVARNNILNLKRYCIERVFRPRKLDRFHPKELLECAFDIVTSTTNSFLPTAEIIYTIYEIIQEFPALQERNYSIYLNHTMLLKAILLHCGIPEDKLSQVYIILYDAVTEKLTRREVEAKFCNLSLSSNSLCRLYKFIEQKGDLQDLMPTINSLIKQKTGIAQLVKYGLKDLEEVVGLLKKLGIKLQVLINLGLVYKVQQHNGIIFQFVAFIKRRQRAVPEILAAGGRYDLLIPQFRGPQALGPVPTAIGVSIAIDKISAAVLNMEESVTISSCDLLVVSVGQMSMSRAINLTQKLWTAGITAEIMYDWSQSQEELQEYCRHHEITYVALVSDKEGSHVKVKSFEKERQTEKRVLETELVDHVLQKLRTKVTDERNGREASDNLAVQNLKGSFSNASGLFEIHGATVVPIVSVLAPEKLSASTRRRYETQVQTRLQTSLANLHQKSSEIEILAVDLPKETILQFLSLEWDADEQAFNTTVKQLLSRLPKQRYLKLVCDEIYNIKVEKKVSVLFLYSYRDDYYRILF
Conditions: not given
On the technique in general: In TR-FRET formats the signal depends on donor and acceptor labels being close together.
In the case of `COc1ncc(Cl)cc1S(=O)(=O)Nc1ccc(F)c(-c2ccc3c(-c4nnc(C(F)(F)F)[nH]4)ncn3c2)c1F` [Compound 102, 5-chloro-N-(2,4-difluoro-3-[1-[5-(trifluoromethyl)-4H-1,2,4-triazol-3-yl]imidazo[1,5-a]pyridin-6-yl]phenyl)-2-methoxypyridine-3-sulfonamide], the IC50 is 50 to 500 nM.

`CNC(=O)c1ncn2cc(-c3c(F)ccc(NS(=O)(=O)c4cc(Cl)cnc4OC)c3C#N)ncc12` [Compound 117, 6-[3-(5-chloro-2-methoxypyridine-3-sulfonamido)-2-cyano-6-fluorophenyl]-N-methylimidazo[1,5-a]pyrazine-1-carboxamide] showed an IC50 of 50 to 500 nM. Same read-out and setting: the value for `CNC(=O)c1ncn2cc(-c3c(F)ccc(NS(=O)(=O)c4cc(Cl)cnc4OC)c3F)sc12` [Compound 120, 2-[3-(5-chloro-2-methoxypyridine-3-sulfonamido)-2,6-difluorophenyl]-N-methylimidazo[4,3-b][1,3]thiazole-7-carboxamide] was 500 to 1000 nM.

The assay is the same for the next values; noted with them: GCN2 2 nM, 100 nM GFP-eIF2a, 150 μM ATP, TR-FRET.
Consider `CNC(=O)c1ncn2cc(-c3c(F)ccc(NS(=O)(=O)c4cc(Cl)cnc4OC)c3Cl)ccc12` [Compound 101, 6-(2-chloro-3-((5-chloro-2-methoxypyridine)-3-sulfonamido)-6-fluorophenyl)-N-methylimidazo[1,5-a]pyridine-1-carboxamide], for which the IC50 was < 50 nM. Same read-out and setting: to `COc1ncc(Cl)cc1S(=O)(=O)Nc1ccc(F)c(-c2ccc3c(-c4ncc[nH]4)ncn3c2)c1Cl` [Compound 103, 5-chloro-N-[2-chloro-4-fluoro-3-[1-(1H-imidazol-2-yl)imidazo[1,5-a]pyridin-6-yl]phenyl]-2-methoxypyridine-3-sulfonamide] belongs < 50 nM; to `COc1ncc(Cl)cc1S(=O)(=O)Nc1ccc(F)c(-c2ccc3c(-c4ncc[nH]4)ncn3c2F)c1F` [Compound 104, 5-chloro-N-[2,4-difluoro-3-[5-fluoro-1-(1H-imidazol-2-yl)imidazo[1,5-a]pyridin-6-yl]phenyl]-2-methoxypyridine-3-sulfonamide], < 50 nM. Same read-out and setting: the value for `COc1ncc(Cl)cc1S(=O)(=O)Nc1ccc(F)c(-c2ccc3c(-c4ccn[nH]4)ncn3c2F)c1F` [Compound 105, 5-chloro-N-[2,4-difluoro-3-[5-fluoro-1-(2H-pyrazol-3-yl)imidazo[1,5-a]pyridin-6-yl]phenyl]-2-methoxypyridine-3-sulfonamide] was < 50 nM; that for `CNC(=O)c1ncn2cc(-c3c(F)ccc(NS(=O)(=O)c4cc(Cl)cnc4OC)c3Cl)ncc12` [Compound 106, 6-[2-chloro-3-(5-chloro-2-methoxypyridine-3-sulfonamido)-6-fluorophenyl]-N-methylimidazo[1,5-a]pyrazine-1-carboxamide] was < 50 nM; that for `COc1ncc(F)cc1S(=O)(=O)Nc1ccc(F)c(-c2ccc3c(-c4ncc[nH]4)ncn3c2F)c1F` [Compound 107, N-[2,4-difluoro-3-[5-fluoro-1-(1H-imidazol-2-yl)imidazo[1,5-a]pyridin-6-yl]phenyl]-5-fluoro-2-methoxypyridine-3-sulfonamide] was < 50 nM.

`Cc1ncc(F)cc1S(=O)(=O)Nc1ccc(F)c(-c2ccc3c(-c4ncc[nH]4)ncn3c2F)c1F` [Compound 108, N-[2,4-difluoro-3-[5-fluoro-1-(1H-imidazol-2-yl)imidazo[1,5-a]pyridin-6-yl]phenyl]-5-fluoro-2-methylpyridine-3-sulfonamide]: the IC50 was < 50 nM.

For `Cc1ncc(Cl)cc1S(=O)(=O)Nc1ccc(F)c(-c2ccc3c(-c4ncc[nH]4)ncn3c2F)c1F` [Compound 109, 5-chloro-N-[2,4-difluoro-3-[5-fluoro-1-(1H-imidazol-2-yl)imidazo[1,5-a]pyridine-6-yl]phenyl]-2-methylpyridine-3-sulfonamide], the half-maximal inhibitory concentration (IC50) is < 50 nM. Still for that read-out and setting: to `COc1ncc(Cl)cc1S(=O)(=O)Nc1ccc(F)c(-c2cn3cnc(-c4nc5ccccc5[nH]4)c3cn2)c1F` [Compound 110, N-[3-[1-(1H-1,3-benzodiazol-2-yl)imidazo[1,5-a]pyrazin-6-yl]-2,4-difluorophenyl]-5-chloro-2-methoxypyridine-3-sulfonamide] belongs < 50 nM.

For the compound `COc1ncc(F)cc1S(=O)(=O)Nc1ccc(F)c(-c2cn3cnc(-c4nc5ccccc5[nH]4)c3cn2)c1F` [Compound 111, N-[3-[1-(1H-1,3-benzodiazol-2-yl)imidazo[1,5-a]pyrazin-6-yl]-2,4-difluorophenyl]-5-fluoro-2-methoxypyridine-3-sulfonamide], the IC50 is < 50 nM. The same measure, in the same setting: the value for `COc1ncc(C#N)cc1S(=O)(=O)Nc1ccc(F)c(-c2cn3cnc(-c4nc5ccccc5[nH]4)c3cn2)c1F` [Compound 112, N-[3-[1-(1H-1,3-benzodiazol-2-yl)imidazo[1,5-a]pyrazin-6-yl]-2,4-difluorophenyl]-5-cyano-2-methoxypyridine-3-sulfonamide] was < 50 nM; that for `Cc1ncc(Cl)cc1S(=O)(=O)Nc1ccc(F)c(-c2cn3cnc(-c4nc5ccccc5[nH]4)c3cn2)c1F` [Compound 113, N-[3-[1-(1H-1,3-benzodiazol-2-yl)imidazo[1,5-a]pyrazin-6-yl]-2,4-difluorophenyl]-5-chloro-2-methylpyridine-3-sulfonamide] was < 50 nM.

Consider `Cc1ncc(F)cc1S(=O)(=O)Nc1ccc(F)c(-c2cn3cnc(-c4nc5ccccc5[nH]4)c3cn2)c1F` [Compound 114, N-[3-[1-(1H-1,3-benzodiazol-2-yl)imidazo[1,5-a]pyrazin-6-yl]-2,4-difluorophenyl]-5-fluoro-2-methylpyridine-3-sulfonamide], for which the IC50 is < 50 nM. The same measure, in the same setting: the value for `COc1ncc(F)cc1S(=O)(=O)Nc1ccc(F)c(-c2ccc3c(-c4nc(Cl)c[nH]4)ncn3c2F)c1F` [Compound 115, N-[3-[1-(4-chloro-1H-imidazol-2-yl)-5-fluoroimidazo[1,5-a]pyridin-6-yl]-2,4-difluorophenyl]-5-fluoro-2-methoxypyridine-3-sulfonamide] was < 50 nM; that for `COc1ncc(Cl)cc1S(=O)(=O)Nc1ccc(F)c(-c2ccc3c(-c4nc(Cl)c[nH]4)ncn3c2F)c1F` [Compound 116, 5-chloro-N-[3-[1-(4-chloro-1H-imidazol-2-yl)-5-fluoroimidazo[1,5-a]pyridin-6-yl]-2,4-difluorophenyl]-2-methoxypyridine-3-sulfonamide] was < 50 nM. Same read-out and setting: the value for `COc1ncc(F)cc1S(=O)(=O)Nc1ccc(F)c(-c2ccc3c(-c4ccno4)ncn3c2)c1F` [Compound 118, N-[2,4-difluoro-3-[1-(1,2-oxazol-5-yl)imidazo[1,5-a]pyridin-6-yl]phenyl]-5-fluoro-2-methoxypyridine-3-sulfonamide] was < 50 nM; that for `COc1ncc(C#N)cc1S(=O)(=O)Nc1ccc(F)c(-c2ccc3c(-c4ccno4)ncn3c2)c1F` [Compound 119, 5-cyano-N-[2,4-difluoro-3-[1-(1,2-oxazol-5-yl)imidazo[1,5-a]pyridin-6-yl]phenyl]-2-methoxypyridine-3-sulfonamide] was < 50 nM. On the same count and under the same terms, to `Cc1ncc(Cl)cc1S(=O)(=O)Nc1ccc(F)c(-c2ccc3c(-c4ccno4)ncn3c2)c1F` [Compound 121, 5-chloro-N-[2,4-difluoro-3-[1-(1,2-oxazol-5-yl)imidazo[1,5-a]pyridin-6-yl]phenyl]-2-methylpyridine-3-sulfonamide] belongs < 50 nM.
